Results published in patent publication US20220331448A1, “COMPOSITIONS AND METHODS FOR TREATING SUCCINIC SEMIALDEHYDE DEHYDROGENASE DEFICIENCY (SSADHD)” (Washington State University, priority 2018, published 2022).
Read-outs that look alike come from different tables or passages of the source.

What was measured:
[1] = test system: Madin-Darby Canine Kidney (MDCK) cells; assay: Transport in MDCK cells; format: in vitro ADME
Source text: (§1) Applicants subsequently turned attention to the transport of NCS-382 in vitro. […] Applicants examined cortical regions from the NCS-treated mice and evaluated the expression of a number of solute carriers involved in neurotransmitter transport. […] This finding is of interest in view of the significant depletion of glutathione in this animal model, the observation that glutathione is composed of glutamate, cysteine and glycine, and the earlier finding that glutamate/glutamine levels are abnormal in aldh5a1−/− brain (Gupta, J Pharmacol Exp Ther 302:180-187 (2004); Chowdhury, (2007)).

[2] = test system: solute carriers (Slc) in aldh5a1−/− cortex; assay: Cortical expression of solute carriers after NCS-382 in aldh5a1−/− mice; format: in vivo; conditions: 300 mg/kg, 7 days
Source text: Functional role of carriers: *17a6, *17a7, *17a8, vesicular glutamate (glu) transporter, glu cotransporter, and glu transporter 3, respectively; 1a1, *1a2, 1a3, 1a4, excitatory amino acid transporters 3, 2, 1 and 4, respectively; *32a1, GABA vesicular transporter; 38a1, Na+-coupled amino acid transporter 1 (glutamine transport); *6a1, plasma membrane GABA transporter; *6a11, 6a12, 6a13, Na+-dependent GABA presynaptic terminal reuptake, Na+/Cl−-dependent betaine, and Na+/Cl−-dependent GABA 2 transporters, respectively; 7a11, glutamate-cysteine antiporter.
as §1

GHB receptor (GHBR) = conditions: relative to GHB; cited from earlier work
aldh5a1−/− mice [3] = conditions: cited from earlier work
[4] = test system: gamma-butyrolactone (GBL)-treated animals; conditions: mouse, in vivo; cited from earlier work
HepG2 cells [5] = assay: Gene expression in HepG2 cells; conditions: 0.5 mM, altered >4-fold
HepG2 cells [6] = assay: Cellular toxicity in HepG2 cells; conditions: up to 1 mM
[7] = Metabolism in mouse liver microsomes
[8] = Metabolism in human liver microsomes
[9] = Pharmacokinetics after i.p. NCS-382 in C57/B6 mice; conditions: i.p. 100 to 500 mg/kg
aldh5a1−/− NSCs = assay: Pharmacotoxicity in neural stem cells from aldh5a1−/− mice; conditions: high-dose
aldh5a1−/− mouse brain [10] = assay: Brain gene expression (GABA(A) receptor subunits, AMPK/mTOR pathway) under Torin drugs; format: in vivo; conditions: for lower expression of Tsc1 and 2: aldh5a1−/− mouse brain
[11] = test system: aldh5a1+/+ and aldh5a1−/− mice; assay: Electrocorticography: seizures under Torin 2; format: in vivo; conditions: 10 mg/kg, mean ± SEM
Method: FIG. 7—Representative electrocorticographic recordings of seizure types in an aldh5a1−/− mouse.
Studies with Torin 2 administration in aldh5a1−/− mice, beginning at DOL10 under an escalating dose paradigm, were evaluated for seizures using a three channel recording electrocorticography (Pinnacle Technology; https://www.pinnaclet.com/eeg-emg-systerns.html) and electrode-implanted aldh5a1+/+ and aldh5a1−/− mice. EEG was scored offline using semi-automated detection (Neuroscore, Data Sciences International, St. Paul, Minn.) for seizure frequency (total number of seizures), and total ictal time (cumulative time spent in seizures); where a seizure event was defined as a run of continuous spikes ≥3s in duration on the EEG. Automatically detected events were verified by visual inspection (Dhamne et al. Mol Autism 8:26 (2017)). Our prediction was that Torin 2 administration would lead to improvement in both parameters. […] If these receptors remain immature, consistent with our hypothesis for bumetanide (see above), then their subsequent up-regulation could conceivably exacerbate depolarization, and thus enhance cumulative epileptic outburst duration, as Applicants observed (Table 2). […]

aldh5a1−/− mouse brain [12] = conditions: in vivo; cited from earlier work
[13] = test system: aldh5a1+/+ and aldh5a1−/− mice; assay: Time to immobilization (sedation) after acute i.p. bumetanide; format: in vivo
Source text: (§2) FIGS. 5A-5C—Intracellular chloride homeostasis, GABAergic neurotransmission and bumetanide in SSADHD (for abbreviations, see FIG. 1). (FIG. 5A) Schematic diagram of membrane ion transport and mechanism of action of bumetanide. (FIG. 5B) NKCC1 and KCC2 gene expression in the hypothalamus of aldh5a1+/+(n=5) and aldh5a1−/− (n=5) mice collected at postnatal day-of-life 20. Expression data were obtained using q-RT-PCR, validated pathway plates from Bio-Rad. (FIG. 5C) Time to sedation following acute dosing of 100 mg/kg bumetanide. Animals were evaluated at day of life (DOL) 20 and 24 for seizure events, and the time to immobilization (sedation) determined by visual recording using Noldus technology (see text). Bumetanide was administered intraperitoneally to the subject mice after 20 min. of initial observational recording, followed by an additional 20 minutes of recording. Total number of seizures was quantified in 5 min blocks of the total 40 min. recording period. Bumetanide was obtained from Enzo Life Sciences, Inc. (Farmingdale, N.Y., USA) and aseptically dissolved in DMSO vehicle. […] Abbreviations employed: n, number of animals studied; DOL, day of life; sec, seconds; min, minutes.
The potential therapeutic role of NKCC1 inhibition in SSADHD was next examined. In this context, Applicants postulated that there would be resistance to the sedative activity of NKCC1 inhibitors in SSADHD, because of the increased expression of NKCC1. Applicants treated aldh5a1+/+ and aldh5a1−/− mice with acute i.p. doses of bumetanide (25 and 100 mg/kg body weight) with video recording of seizure activity as well as assessment of the time to immobilization. […] Applicants employed Pinnacle technology (https://www.pinnaclet.com) technology for recording of animal behavior in conjunction with a rubric developed by Noldus technology to evaluate seizure activity (http://www.noldus.com/animal-behavior-research). Applicants' design was to quantify generalized tonic-clonic seizures in 5 minute epochs for 40 minutes in continuum. At the 20 minute mark, a single intraperitoneal administration of bumetanide (25 or 100 mg/kg) was given and the animals returned to the open field setting.

aldh5a1−/− mice [14] = assay: Video-recorded seizure activity after acute i.p. bumetanide; format: in vivo
Source text: as §2
The potential therapeutic role of NKCC1 inhibition in SSADHD was next examined. […] Applicants' design was to quantify generalized tonic-clonic seizures in 5 minute epochs for 40 minutes in continuum. […]

[15] = test system: gamma-butyrolactone (GBL)-treated animals; assay: Block of sedative and motor effects of GBL in mice; format: in vivo; conditions: diclofenac 25 mg/kg with NCS-382 300 mg/kg
aldh5a1−/− mice [16] = assay: Enzyme replacement therapy: survival of aldh5a1−/− mice to DOL 30; format: in vivo; conditions: i.p. 1 mg/kg q.d. from DOL 10; 4 of 5 mice
Source text: As a therapeutic approach, enzyme replacement therapy (ERT) has gained prominence in the lysosomal storage disorders, although it should be feasible in organic acidernias (Darvish-Damavandi et al. Mol Genet Metab Rep 8:51-60 (2016)). Applicants examined the feasibility of ERT in aldh5a1−/− mice using a GST (glutathione)-tagged human ALDH5A1 gene construct that overexpresses the GST-hSSADH fusion protein with accompanying ampicillin resistance in E. coli (DNASU Plasmid Repository; Ramachandran et al. (2004)). Crude extracts of E. coli were harvested that had been transfected and grown in standard LB broth supplemented with ampicillin at 37° C. overnight, pelleted and lysed with Pefabloc (protease inhibitor; Sigma-Aldrich, St. Louis, Mo. USA) and lysozyme. GST-hSSADH resident in crude lysates of E. coli was purified using Pierce™ GST spin purification kits, followed by dialysis and subsequent concentration using polyethersulfone (PES) columns. Resultant protein content was quantified using a standard BCA protein assay. The GST-tagged enzyme activity was cleaved with thrombin and the activity of ALDH5A1 determined employing spectrofluorometry based on the NAD/NADH couple (Gibson et al. Clin Chim Acta 196:219-221 (1991)).

aldh5a1−/− mice [17] = assay: GHB and GABA by LC/MS-MS after ERT; format: in vivo; conditions: enzyme treated animals
[18] = test system: GABAA receptor subunits in aldh5a1−/− mice; assay: Expression of GABA receptor genes after ERT; conditions: ERT DOL 30 vs untreated DOL 21
[19] = with NADPH, parent disappearance

O=C(O)/C=C1\CCCc2ccccc2C1O (stereo not shown) [NCS-382]
inhibition of GHB transport [1]: capable of inhibiting GHB transport
transport of the compound ([1]; MDCK): actively transported
expression of the glutamate-cystine antiporter [2]: induced significant down-regulation
solute carriers with aberrant expression normalized [2]: normalized the aberrant expression of seven
solute carriers without effect [2]: had no effect on six
Ki, times lower than that of GHB (GHB receptor (GHBR)): 14 times
rescue from premature lethality / lifespan extension (aldh5a1−/− mice [3]): effective
blocking the motor deficits induced by GBL [4]: effective
CD36 expression change (HepG2 cells [5]): ↓
HTRA4 expression change (HepG2 cells [5]): ↑
SERPINA3 expression change (HepG2 cells [5]): ↓
SLC2A3 expression change (HepG2 cells [5]): ↓
SLC51A expression change (HepG2 cells [5]): ↓
TNFRSF1A expression change (HepG2 cells [5]): ↑
cytotoxicity (cellular integrity, survival, organelle function) (HepG2 cells [6]): little evidence
concentration up to which glucuronide formation was linear ([7]; mouse): up to 100 μM
calculated hepatic clearance ([7]; murine): 5.2 L/h/kg body weight
Km ([7]; read-out: Michaelis constant (Km) for dehydrogenation, mouse): 29.5 ± 10 µM
intrinsic clearance (Clint) [7, 19]: 0.587 mL/min/mg protein
calculated hepatic clearance ([8]; human): 1.2 L/h/kg body weight
concentration up to which glucuronide formation was linear ([8]; human): up to 100 μM
Km ([8]; read-out: Michaelis constant (Km) for dehydrogenation, human): 12.7 ± 4.9 µM
intrinsic clearance (Clint) [8, 19]: 0.513 mL/min/mg protein
brain t½ ([9]; decreasing with increasing dose): 45.6 to 58.2 min
plasma elimination t½ ([9]; dose-dependent): 15 to 40.8 min
pharmacotoxicity in neural stem cells (aldh5a1−/− NSCs): only minimal pharmacotoxicity

CCC(=O)N1CCN(c2ccc(-n3c(=O)ccc4cnc5ccc(-c6cnc7ccccc7c6)cc5c43)cc2C(F)(F)F)CC1 [Torin 1]
decreased expression of Prkag1 and 2 (aldh5a1−/− mouse brain [10]; aldh5a1−/− brain): normalized
lower expression of Tsc1 and 2 (aldh5a1−/− mouse brain [10]): normalized
rescue from premature lethality / lifespan extension (aldh5a1−/− mice [3]): significantly prolong the lifespan

Nc1ccc(-c2ccc3ncc4ccc(=O)n(-c5cccc(C(F)(F)F)c5)c4c3c2)cn1 [Torin 2]
Seizure Frequency [11]: 0.50 ± 0.59 avg/hr
Total Ictal Time [11]: 2.1 ± 1.2 seconds (avg/hr)
expression of Stk11 (AMPK's activator) (aldh5a1−/− mouse brain [10]; aldh5a1−/− mice): normalized
lower expression of Tsc1 and 2 (aldh5a1−/− mouse brain [10]): normalized
rescue from premature lethality / lifespan extension (aldh5a1−/− mice [3]): rescue
rescue from premature lethality / lifespan extension (aldh5a1−/− mice [3]; listed as Torin2): striking
rescue from premature lethality / lifespan extension (aldh5a1−/− mice [3]; listed as torin 2): significantly prolong the lifespan
expression of GABA(A)ergic receptor subunits (aldh5a1−/− mouse brain [12]): corrected (upregulated)

CCCCNc1cc(C(=O)O)cc(S(N)(=O)=O)c1Oc1ccccc1 [bumetanide]
immobilization during the 40 minute recording ([13]; 25 mg/kg i.p., aldh5a1+/+ or aldh5a1−/−): did not induce immobilization
immobilization ([13]; 100 mg/kg i.p.): rapid induction of immobilization
time to sedation in wild-type mice ([13]; 100 mg/kg, aldh5a1+/+): almost instantaneous immobilization
period from injection to onset of immobilization ([13]; 100 mg/kg, aldh5a1−/−): 3 to 8 min
seizure activity without sedation (aldh5a1−/− mice [14]; 25 mg/kg, data not shown): reduced seizure activity
seizure activity between injection and onset of immobilization (aldh5a1−/− mice [14]; 100 mg/kg): no seizure activity

O=C(O)Cc1ccccc1Nc1c(Cl)cccc1Cl [diclofenac]
effect of co-administration on efficacy of NCS-382 to block sedative and motor effects of GBL [15]: improved the efficacy

NCCS(=O)(=O)O [taurine]
rescue from premature lethality / lifespan extension (aldh5a1−/− mice [3]): rescue

B1: ALDH5A1: bacterially-produced purified human ALDH5A1 (SSADH) enzyme, from GST-hSSADH fusion protein cleaved with thrombin (protein, UniProt P51649 48-535, looked up)
Succinate-semialdehyde …: AGRLAGLSAALLRTDSFVGGRWLPAAATFPVQDPASGAALGMVADCGVREARAAVRAAYEAFCRWREVSAKERSSLLRKWYNLMIQNKDDLARIITAESGKPLKEAHGEILYSAFFLEWFSEEARRVYGDIIHTPAKDRRALVLKQPIGVAAVITPWNFPSAMITRKVGAALAAGCTVVVKPAEDTPFSALALAELASQAGIPSGVYNVIPCSRKNAKEVGEAICTDPLVSKISFTGSTTTGKILLHHAANSVKRVSMELGGLAPFIVFDSANVDQAVAGAMASKFRNTGQTCVCSNQFLVQRGIHDAFVKAFAEAMKKNLRVGNGFEEGTTQGPLINEKAVEKVEKQVNDAVSKGATVVTGGKRHQLGKNFFEPTLLCNVTQDMLCTHEETFGPLAPVIKFDTEEEAIAIANAADVGLAGYFYSQDPAQIWRVAEQLEVGMVGVNEGLISSVECPFGGVKQSGLGREGSKYGIDEYLELKYVCYGGL
modifications: thrombin-cleaved from GST fusion
notes: bacterially-produced purified human ALDH5A1 (SSADH) enzyme, from GST-hSSADH fusion protein cleaved with thrombin
survival rate to 30 days (aldh5a1−/− mice [16]): 80%
GABA in blood (aldh5a1−/− mice [17]): trend toward improved levels
GHB in the brain (aldh5a1−/− mice [17]): significant correction
expression of GABAA receptor subunits (primarily gamma, epsilon and theta) [18]: significantly corrected
